# Assay results taken from PubChem BioAssay (NCI).
# Several values for one entry are separate records, joined by “and”; a condition that tells them apart may be missing. Equal entries are not always repeated.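 Growth conditions: 96-well plates. Treatment: test compound, 48 hours, 5 concentrations. Analysis: linear interpolation between bracketing concentrations; unreached endpoints set to highest concentration. The concentration for 50% growth inhibition is given as GI50. TGI denotes the concentration required for complete inhibition of growth.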
# What was measured:
# Experiment in all cases: NCI tumour cell line growth inhibition, 48 h
# [1] = system: CCRF-CEM leukemia
# [2] = system: HCT-116 colon
# [3] = system: HS 578T breast
# [4] = system: OVCAR-3 ovarian
# [5] = system: OVCAR-8 ovarian
# [6] = system: PC-3 prostate
# [7] = system: SK-MEL-28 melanoma
# [8] = system: SN12C renal
# [9] = system: SNB-19 CNS
# [10] = system: SW-620 colon
SMILES,GI50 [1],TGI [1],GI50 [2],TGI [2],GI50 [3],TGI [3],GI50 [4],TGI [4],GI50 [5],TGI [5],GI50 [6],TGI [6],GI50 [7],TGI [7],GI50 [8],TGI [8],GI50 [9],TGI [9],GI50 [10],TGI [10]
CCOC(=O)CNC(=O)CCCn1c(=O)c2c3ccccc3n(C)c2n2nnc(-c3ccccc3)c12,26.5 µM,> 50 µM,9.04 µM,27.3 µM,4.51 µM,> 50 µM,12.5 µM,48.8 µM,25.2 µM,> 50 µM,8590 nM,> 50 µM,> 50 µM,> 50 µM,> 50 µM,> 50 µM,5.83 µM,22.7 µM,> 50 µM,> 50 µM
C=CC[Se]C(=O)Cc1c(C)n(C(=O)c2ccc(Cl)cc2)c2ccc(OC)cc12,2.58 µM,7.64 µM,1.76 µM,3.57 µM,2.25 µM,7.33 µM,1.78 µM,3.24 µM,1.84 µM,3.68 µM,1260 nM,2.8 µM,1.69 µM,3.12 µM,1.68 µM,3.05 µM,0.657 µM,1.99 µM,1.99 µM,4.42 µM
CC[C@@H](C)[C@H]([C@H](CC(=O)N1CCC[C@@H]1[C@@H](OC)[C@H](C)C(=O)N[C@H](Cc1ccccc1)c1nccs1)OC)N(C)C(=O)[C@H](NC(=O)[C@@H](C(C)C)N(C)C)C(C)C,0.000257 µM and 0.000425 µM,–,–,0.00467 µM,6.95e-05 µM,4.06 µM,–,0.000158 µM and < 0.087 µM,0.000425 µM,–,0.00777 nM,> 65.8 µM,1.26 µM,> 100 µM,0.000425 µM,4.25 µM and > 14.7 µM,–,0.00744 µM,0.000425 µM,–
COc1cc(-c2nn(C(=O)NS(=O)(=O)c3ccc(C)cc3)cc2-c2ccncc2)ccc1Cl,14.1 µM,> 100 µM,5.63 µM,32.2 µM,7.38 µM,> 100 µM,25.2 µM,> 100 µM,2.02 µM,93.6 µM,16100 nM,> 100 µM,3.51 µM,13.1 µM,3.02 µM,24.1 µM,4.9 µM,38.5 µM,20.4 µM,> 100 µM
Cc1ccccc1-n1c(/C=C\c2ccccn2)nc2ccccc2c1=O,4.24 µM,30.1 µM,6.87 µM,22 µM,15.5 µM,> 100 µM,6.75 µM,53.6 µM,21.4 µM,> 100 µM,6410 nM,65.4 µM,18.4 µM,39.8 µM,21.2 µM,> 100 µM,32.1 µM,> 100 µM,13.2 µM,56.2 µM
CC1CCCN(CC(O)CN2CCCc3ccccc32)C1 (configuration not stated),–,> 100 µM,–,> 100 µM,–,> 100 µM,–,> 100 µM,–,> 100 µM,–,> 100 µM,–,> 100 µM,–,> 100 µM,–,> 100 µM,–,> 100 µM
C=C1C(=O)O[C@H]2[C@H]1[C@H](OC(=O)/C(C)=C\C)C[C@]1(CO1)[C@@H]1[C@H](OC(C)=O)C=C(C)[C@]21O,–,15.6 µM,–,20.3 µM,–,> 100 µM,–,32.1 µM,–,> 100 µM,–,> 58.8 µM,–,30.6 µM,–,30.2 µM,–,> 100 µM,–,27.9 µM
Cc1c2ncccc2nc2[nH]c3ccc(OCCN(C)C)cc3c12,2.1 µM,20.9 µM,0.552 µM,12.3 µM,3.77 µM,33.7 µM,3.62 µM,19.7 µM,1.49 µM,16.5 µM,1860 nM,10.9 µM,4.4 µM,19.1 µM,2.5 µM,28.5 µM,2.8 µM,26.7 µM,0.94 µM,13.7 µM
CC12CCc3ccccc3C1=Nc1ccccc12 (configuration not stated),–,47.3 µM,–,> 100 µM,–,46.7 µM,–,66.5 µM,–,> 100 µM,–,> 100 µM,–,> 100 µM,–,43.7 µM,–,> 100 µM,–,> 100 µM
CCOC(=O)N1C/C(=C/c2ccc(OC)cc2)C(=O)/C(=C/c2ccc(OC)cc2)C1,2.85 µM,> 100 µM,0.21 µM,0.579 µM,2.85 µM,> 100 µM,2.75 µM,7.81 µM,3.49 µM,14.6 µM,2530 nM,8.61 µM,2.72 µM,7.84 µM,1.91 µM,4.23 µM,3.87 µM,> 35 µM,1.37 µM,4.4 µM
O=C1/C(=C/c2ccc([N+](=O)[O-])s2)Oc2ccccc21,0.282 µM,0.874 µM,0.267 µM,0.791 µM,0.882 µM,> 48.6 µM,0.25 µM,0.55 µM,0.297 µM,1.68 µM,387 nM,2.26 µM,1.25 µM,2.65 µM,1.23 µM,3.04 µM,1.26 µM,2.79 µM,0.257 µM,0.725 µM
CCCCCCNC(=O)Oc1ccc(/C(=C(\C)c2ccccc2)c2ccc(OCCN3CCCCC3)cc2)cc1,3.05 µM,17.2 µM,1.49 µM,2.89 µM,2.71 µM,13.4 µM,1.97 µM,4.82 µM,2.14 µM,5.94 µM,2580 nM,11.5 µM,2.06 µM,4.41 µM,1.7 µM,3.4 µM,4.69 µM,18.2 µM,2.16 µM,5.66 µM
O=C1C(Cl)=C(Nc2cccc(C(F)(F)F)c2)C(=O)N1Cc1ccccc1Cl,1.23 µM,–,1.25 µM,5.27 µM,8.34 µM,43.5 µM,4.33 µM,24.8 µM,2.71 µM,20.9 µM,4720 nM,18.2 µM,8.21 µM,26.9 µM,3.96 µM,16.8 µM,13.1 µM,29.4 µM,2.38 µM,22.2 µM
COc1ccc2c(c1OC)-c1c(c3ccc([N+](=O)[O-])cc3c(=O)n1CCCN=[N+]=[N-])C2=O,2.04 µM,17.1 µM,2.93 µM,38.2 µM,> 100 µM,> 100 µM,56.1 µM,> 100 µM,21 µM,> 100 µM,22000 nM,> 100 µM,> 100 µM,> 100 µM,11.5 µM,> 100 µM,3.62 µM,> 100 µM,23.1 µM,> 100 µM
CC1CCC2C(C)C3C(CC4C5CC=C6CC(OC7OC(CO)C(O)C(OC8OC(CO)C(O)C(O)C8O)C7OC7OC(C)C(O)C(O)C7O)CCC6(C)C5CCC43C)N2C1 (configuration not stated),> 2.5 µg/mL,28.2 µM and > 2.5 µg/mL,> 2.5 µg/mL,24.5 µM and > 2.5 µg/mL,> 2.5 µg/mL,32.6 µM and > 2.5 µg/mL,> 2.5 µg/mL,31.7 µM and > 2.5 µg/mL,> 2.5 µg/mL,29.8 µM and > 2.5 µg/mL,> 2.5 µg/mL,28.5 µM and > 2.5 µg/mL,> 2.5 µg/mL,21.8 µM and > 2.5 µg/mL,> 2.5 µg/mL,24.3 µM and > 2.5 µg/mL,> 2.5 µg/mL,23.8 µM and > 2.5 µg/mL,> 2.5 µg/mL,31.6 µM and > 2.5 µg/mL
C#CCOc1ccc2ncnc(Nc3ccc(NC(=O)CCl)cc3)c2c1,2.38 µM,12.2 µM,3.68 µM,14.9 µM,5.61 µM,61.7 µM,4.68 µM,17.2 µM,5.15 µM,63.4 µM,8100 nM,27.6 µM,14.5 µM,79.6 µM,6.4 µM,36.9 µM,8.43 µM,22.3 µM,3.48 µM,13.3 µM
COc1ccc(/C(Cl)=C(\C=O)c2ccc(OC)c(OC)c2)cc1OC,–,> 100 µM,–,> 100 µM,–,> 100 µM,–,> 57.7 µM,–,> 100 µM,–,> 100 µM,–,> 100 µM,–,> 100 µM,–,> 100 µM,–,> 100 µM
O=C1C=CN(C2OC(CO)C(O)C2O)C(=O)C1 (configuration not stated),> 625 µM,> 1710 µM,2.54 µM,625 µM and > 2500 µM,–,> 747 µM,–,> 1870 µM,72.6 µM and 42.7 µM,625 µM and > 2500 µM,–,> 2500 µM,> 625 µM and 252 µM,> 2500 µM,1.34 µM,–,> 625 µM and 819 µM,> 2500 µM,71.4 µM,625 µM and > 2500 µM
COc1ccc(NC(=O)c2sc3nc(C)c(C(O)c4ccc(OC)cc4)cc3c2N)cc1 (configuration not stated),1.44 µM,> 50 µM,0.983 µM,> 50 µM,0.821 µM,4.09 µM,0.365 µM,5.31 µM,1.79 µM,> 50 µM,1890 nM,> 50 µM,6.22 µM,> 50 µM,2.25 µM,> 50 µM,1.84 µM,> 50 µM,1.26 µM,> 50 µM
Cc1ccc2[nH]c(C(=O)NN3C(=O)CSC34CCCC(C)C4)c(-c3ccccc3)c2c1 (configuration not stated),10.8 µM,31.8 µM,14.6 µM,31 µM,28.2 µM,68 µM,13.8 µM,30.3 µM,15.6 µM,32.9 µM,14200 nM,29.6 µM,19.7 µM,37.6 µM,16.6 µM,32.2 µM,18.6 µM,36.6 µM,25.6 µM,67.1 µM
CC(=O)NCCCCCCNC(C)=O,–,> 10000 µM,–,> 10000 µM,–,> 10000 µM,–,9840 µM,–,> 10000 µM,–,> 10000 µM,–,> 10000 µM,–,> 10000 µM,–,> 10000 µM,–,> 10000 µM
O=C(N=Nc1c(O)[nH]c2c(Cl)cc(Cl)cc12)c1ccncc1,–,> 100 µM,–,39.2 µM,–,> 100 µM,–,37.5 µM,–,67.8 µM,–,40.2 µM,–,50.5 µM,–,64.4 µM,–,> 100 µM,–,> 100 µM
CCCCCC(=O)OCC(=O)O[C@@H]1C[C@]2(C(C)C)O[C@@]1(C)[C@@H]1CC[C@@H](C)[C@H]1[C@@H]2OC(=O)/C=C/c1ccccc1,> 37.6 µM,> 100 µM,32.2 µM,> 100 µM,–,0.0315 µM,> 46.6 µM,> 67.3 µM,0.0907 µM,> 79.2 µM,8580 nM,> 100 µM,> 56.6 µM,> 83 µM,2.9 µM,> 78.7 µM,> 75.3 µM,> 100 µM,> 40.7 µM,> 67.6 µM
CCCC(=O)NC(c1ccc2c(c1)OCO2)c1ccc2cccnc2c1O (configuration not stated),0.46 µM,> 100 µM,0.387 µM,56.1 µM,5.76 µM,78.8 µM,0.427 µM,15.4 µM,1.48 µM,> 100 µM,729 nM,> 100 µM,3.03 µM,> 100 µM,2.28 µM,> 100 µM,2.28 µM,> 100 µM,1.2 µM,> 100 µM
O=C(NCCCNC(=O)OCc1ccc2c(Br)cc(Br)c(O)c2n1)OCc1ccc2c(Br)cc(Br)c(O)c2n1,> 100 µM,> 100 µM,> 100 µM,> 100 µM,> 100 µM,> 100 µM,> 100 µM,> 100 µM,> 100 µM,> 100 µM,> 100000 nM,> 100 µM,> 100 µM,> 100 µM,> 100 µM,> 100 µM,> 100 µM,> 100 µM,> 100 µM,> 100 µM
CCCCSCc1nc2nc(Cl)c(Cl)nc2[nH]1,–,63.6 µM,–,40.6 µM,–,> 100 µM,–,36.7 µM,–,> 100 µM,–,> 100 µM,–,71.9 µM,–,53.2 µM,–,> 100 µM,–,> 100 µM
COc1cccc(Cn2cc3c(c2)-c2oncc2CC3)c1,0.253 µM,–,0.43 µM,29.4 µM,0.249 µM,0.886 µM,0.267 µM,0.7 µM,0.622 µM,> 69.3 µM,751 nM,> 100 µM,0.746 µM,> 100 µM,0.597 µM,> 100 µM,0.543 µM,> 100 µM,0.319 µM,> 100 µM
